Test results taken from patent US20130143955A1, “Cyclic di-GMP-II Riboswitches, Motifs, and Compounds, and Methods for Their Use” (priority 2010, published 2013).
Values joined by “and” are separate entries in the source; they are usually repeats but may differ in a detail not shown here. Equal values may be shown once.

Columns and labels:
[1] = system: 864 Cd Tandem RNA (c-di-GMP-II aptamer and group I ribozyme); test: Self-splicing assays of the tandem riboswitch-ribozyme; format: biochemical, Clostridium difficile 630; settings: for Rate constant, product 3′E* (alternative GTP attack product) / Rate constant, product 5′E-3′E (spliced exons): Internally 32P-labeled RNA; for Rate constant, product GTP1 (GTP attack at 5′ SS) / Rate constant, product GTP2 (alternative GTP attack site): Unlabeled RNA, [α-32P]GTP
Procedure: Initial ribozyme self-splicing reaction conditions were based on those previously reported for use with a group I ribozyme from Tetrahymena thermophile and consisted of incubations at 30° C. in the presence of 50 mM HEPES (pH 7.5 at 23° C.), 100 mM (NH4)2SO4, 5 mM MgCl2, and 0.1 mM GTP. At concentrations of MgCl2 above 10 mM and temperatures at 37° C. or above, the difference between the ligated exons and alternate GTP attack site products became less pronounced. A range of ligand concentrations were tested for both GTP (5 μM to 1 mM) and cyclic di-GMP ([…] to 100 μM) to determine the optimal amounts for splicing activity, based on probable biological relevance and degree of allosteric control.
Splicing assays for wild-type and mutant RNAs were carried out for 30 minutes (unless otherwise noted) under the conditions described above, with the addition of 50 μM GTP and/or 10 μM c-di-GMP when stated. Final RNA concentrations were lower than 1 μM for all reactions. Reaction mixtures containing unlabeled RNA were supplemented with 1 μCi/μL [α-^32P]GTP. Products were separated by denaturing 6% PAGE. Gels were dried and products were subsequently imaged using a PhosphorImager (Molecular Dynamics).
Aliquots from splicing reactions conducted with either 5′ or internally ^32P-labeled 864 Cd Tandem RNAs were removed at various incubation times and the reactions were terminated by the addition of stop buffer (see below). Similarly, time course experiments were conducted with unlabeled 864 Cd Tandem RNAs supplemented with ˜50 nCi/μL [α-^32P]GTP. Reactions were initiated by combining a solution containing RNA only (˜100 pM 5′ ^32P-labeled RNA, ˜1 μM internally ^32P-labeled RNA, or ˜10 nM unlabeled RNA) with a solution containing the buffer and any ligands to yield a final concentration of contents as described above. The two mixtures were briefly pre-heated at 30° C. and the reaction was initiated by the transfer of buffer/ligand solution to the RNA solution. The zero time point was removed prior to initiation of the reaction and immediately placed into an equivalent volume of stop buffer (8 M urea, 20% w/v sucrose, 0.1% SDS, 0.05% bromophenol blue, 0.05% xylene cyanol FF, 0.09 M Tris base, 0.09 M borate, 1 mM EDTA [pH 8.0]). Likewise, subsequent aliquots were removed at each time point and quenched by placement in stop buffer. Reaction products were separated as described above and dried gels were imaged using a PhosphorImager (Molecular Dynamics).
For precursor RNAs that were initially ^32P-labeled, rate constants for product formation were established by determining the yield of specific products relative to the unprocessed or misprocessed RNAs. First, an average background for each lane was calculated and subtracted from intensities of individual bands or lanes. Second, product band intensities were compared to the total intensity of their corresponding lane, which corrected for any differences due to sample loading. Third, the band intensity at time zero was subtracted from the corresponding bands of all other time points. Yields of products from assays conducted with internally ^32P-labeled RNAs were also corrected for the number of uridine nucleotides in the product RNA versus the total number of uridine nucleotides in the precursor RNA (252 nucleotides). This correction allows for direct comparison of the number of molecules present in each product band. The total fraction of RNA processed at 120 minutes is ˜40%. […] This extent of RNA misfolding, particularly in the absense of possible protein factors, is also typical of other large functional RNAs. Thus, at 120 minutes, approximately 80% of the total reactable RNA has undergone processing. The fractions of RNA processed for the internally ^32P-labeled RNA was adjusted to reflect this value of 80% at 120 minutes.
For splicing assays conducted using unlabeled precursor RNAs, determination of rate constants were conducted differently. […]

[2] = system: ompR riboswitch (c-di-GMP-II, ompR 5′ UTR); test: Single-round transcription termination assay; format: biochemical, C. difficile; settings: WT ompR construct, c-di-GMP 50 μM
Procedure: Single round transcription assays were conducted using a method (FIG. 7) adapted as described previously (data not shown) with the following modifications. The elongation mixture contained 50 μM UTP, and 150 μM each of ATP, GTP and CTP. Heparin was added at 0.1 mg/mL at initiation of elongation. For the reactions containing the second messenger, c-di-GMP was added to a final concentration of 50 μM.
A template DNA harboring the 5′ UTR of the ompR gene of C. difficile and its native promoter was prepared by PCR (see Table 4). The predicted intrinsic transcription termination site is 40 nucleotides shorter than the terminus of the template DNA. The ompR riboswitch is predicted to be an ‘ON’ switch based on its architecture. Therefore the full length transcript was expected to undergo decreased termination in the presence of c-di-GMP. Mutant templates M2 and M3 were constructed by PCR and confirmed by sequencing (see Table 4). A template DNA for production of a simulated intrinsic transcription termination product was generated by PCR and was used as a marker during PAGE analysis of transcription products.
Further evidence of aptamer-controlled transcription termination was observed by conducting single-round transcription assays in vitro using another C. difficile c-di-GMP-II construct from the ompR mRNA (FIG. 2C). […]

[3] = GTP + and c-di-GMP +, first 15 minutes

SMILES	ratio of alternative attack product (3′E*) to spliced exons (5′E-3′E) ([1]; 120 minutes, absence of c-di-GMP (GTP only))	Rate constant, product 3′E* (alternative GTP attack product) ([1]; GTP + and c-di-GMP −) [min⁻¹]	Rate constant, product 5′E-3′E (spliced exons) ([1]; GTP + and c-di-GMP −)	Rate constant, product GTP1 (GTP attack at 5′ SS) ([1]; GTP + and c-di-GMP −) [min⁻¹]	Rate constant, product GTP2 (alternative GTP attack site) ([1]; GTP + and c-di-GMP −) [min⁻¹]	production of full-length RNA transcript (transcription termination control) [2]	EC50 ([1]; 5′ 32P-labeled 864 Cd Tandem RNA, 120 minutes, read-out: S50, concentration of c-di-GMP at which 5′E-3′E is half-maximally processed)	ratio of alternative attack product (3′E*) to spliced exons (5′E-3′E) ([1]; 120 minutes, c-di-GMP present)	increase in initial rate constant for GTP attack at the 5′ SS ([1]; GTP and c-di-GMP versus only GTP, unlabeled RNA, first 15 minutes) [fold]	Rate constant, product 3′E* (alternative GTP attack product) ([1]; GTP + and c-di-GMP +) [min⁻¹]	Rate constant, product 5′E-3′E (spliced exons) ([1]; GTP + and c-di-GMP +)	Rate constant, product GTP1 (GTP attack at 5′ SS) [1, 3] [min⁻¹]	Rate constant, product GTP2 (alternative GTP attack site) [1, 3] [min⁻¹]	increase in the production of spliced exons ([1]; presence versus absence of c-di-GMP, 120 minutes) [fold]	increase in the initial rate constant for spliced product formation ([1]; presence versus absence of c-di-GMP, internally labeled RNA) [fold]
Nc1nc2c(ncn2[C@@H]2O[C@H](COP(=O)(O)OP(=O)(O)OP(=O)(O)O)[C@@H](O)[C@H]2O)c(=O)[nH]1 [GTP]	more than 20 fold	0.024	1.1×10^−3 min^−1	0.0018	0.027	–	–	–	–	–	–	–	–	–	–
Nc1nc2c(ncn2[C@@H]2O[C@@H]3COP(=O)(O)O[C@H]4[C@@H](O)[C@H](n5cnc6c(=O)[nH]c(N)nc65)O[C@@H]4COP(=O)(O)O[C@H]3[C@H]2O)c(=O)[nH]1 [c-di-GMP, cyclic di-GMP]	–	–	–	–	–	robust production of full-length RNA transcript only when c-di-GMP is added	~30 nM and 30 nM	near equal amounts	~13	0.018	1.3×10^−2 min^−1	0.023	0.023	~8	12
